According to patent EP0776155B1, “DELIVERY OF EXOGENOUS CHEMICAL SUBSTANCES TO PLANT TISSUES” (MONSANTO COMPANY, priority 1994, dated 1996):

Experiments:
Format in all cases: in vivo
[1] = tested on: common lambsquarter (Chenopodium album, CHEAL); assay: Example 46: percent control, various propelled particulate abrasives, glyphosate spray; conditions: glyphosate 0.11 kg a.e./ha, 200-mesh
Description: In this Example illustrative of the invention, common lambsquarter (Chenopodium album, CHEAL) seeds were planted in 4-inch (10.1-cm) square pots filled with a soil mix consisting of 50% Metromix 350 plus 50% silt loam to which 100 g/cu ft (3.57 kg/m^3) Osmocote fertilizer were added, and the seeds were covered with the same soil mix without added fertilizer. […] The same settings were maintained before and after treatment.
Physical injury in this Example was inflicted on the above-ground portions of the plants, approximately 2 weeks after planting, by various propelled particulate abrasives. This was applied using the same sandblaster as used in Example 47. For this Example, air pressure was maintained at 40 lb/sq inch (276 kiloPascals), the nozzle was set 16 inches (41 cm) above the plant canopy, track speed was under 1 mile/hour (1.6 km/hr) and one pass was made with the sandblaster. […] Some plants received no abrasion.
Materials used as abrasive agents in this study were: • garnet, 200-mesh as used in Example 47 • glass cullet, 1040 supplied by Universal • glass cullet, 1035 supplied by Universal • aluminum oxide type B, 120-mesh • white silica sand, 1.0 profile size, supplied by Unimin • glass beads, 140-270 mesh • Scott's Lawn & Garden fertilizer granules ground to a fine powder using a Retsch 2M-1 mill
Plants were then assigned to different herbicide treatments in a factorial experimental design with 2 replications. All plants for each herbicide treatment were sprayed at the same time using a track sprayer calibrated to deliver 20 gallons/acre (187 liters/hectare) water with an 8002E nozzle having a 50-mesh screen, 16 inches (41 cm) above the plant canopy. In these Examples the herbicide used was glyphosate as its isopropylamine salt, in the form of the aqueous concentrate formulation MON 2139 of Monsanto Company. Spray solutions were made from stock solutions prepared by dilution of MON 2139 in water.
After an interval of 12 days, a visual evaluation was performed to estimate herbicidal efficacy as percent control of treated plants compared to untreated check plants.

[2] = tested on: velvetleaf (Abutilon theophrasti, ABUTH); assay: Example 11: percent control, time between abrasion and glyphosate application varied (hours); conditions: glyphosate rate (kg a.e./ha)
Description: In these Examples illustrative of the invention, velvetleaf (Abutilon theophrasti, ABUTH) seeds were planted in 4-inch (10.1 cm) square pots containing 100% silt loam soil to which 35 grams/cu ft (1.25 kg/m^3) IBDU fertilizer was added, and covered with a mix of 50% Rediearth plus 50% silt loam. The pots were sub-irrigated and the seedlings thinned after emergence to 2 plants per pot.
Abrasion was applied using propelled 200-mesh garnet exactly as described for Examples 1-9. The herbicide used in these Examples was glyphosate as its isopropylamine salt, applied as diluted MON 2139, exactly as described for Examples 1-9.
The time period between abrasion and herbicide application was varied as follows. In Example 11, all abrasion treatments were applied within a short period of time, and herbicide applications were made 2, 4 and 24 hours after abrasion. A set of abraded plants received no herbicide at any time. In addition, herbicide applications were made to unabraded plants at two times: (i) at the time of abrasion, and (ii) 24 hours after the time of abrasion. In Example 12, all herbicide applications were made within a short period of time, and abrasion was applied 5, 2 and 1 days before herbicide application. In addition, herbicide application was made to unabraded plants.
Three replications were performed of every treatment. After treatment, all plants were placed in the greenhouse for the remainder of the experiment, and sub-irrigated. The first replicate was placed in one block in order of the treatment list for ease of viewing and the remaining replicates were randomly placed in two separate blocks.
After an interval of 12-14 days after herbicide application, a visual evaluation was performed to estimate herbicidal efficacy as percent control of treated plants compared to untreated check plants.

[3] = tested on: white flatweed (Hypochoeris microcephala, HRYMI); assay: Example 51: field experiment, percent control, bruising or blasting then glyphosate spray; conditions: 14 days after glyphosate application
Description: (§1) In this Example illustrative of the invention, a field experiment was conducted in the Australian Capital Territory on 5-10 cm high vegetation consisting primarily of white flatweed (Hypochoeris microcephala, HRYMI) at the rosette stage of growth and silvergrass (Vulpia sp., VLPSS) at the 1-3 tiller stage. Plots were established, 2 m wide and 10 m long, with 3 replications of each treatment.
(§2) Plots received either no physical injury, or one of two injury treatments, a prior art method described herein as "bruising" and a method of the present invention described herein as "blasting". Bruising involved driving a 2 metric ton four-wheel drive vehicle fitted with rubber tires, twice over the plot in opposite directions. For blasting, a hand-held sandblaster was used having a container of capacity 1000 cm^3 slung under the gun body. The sandblaster was made of die-cast aluminum alloy and equipped with a 6 mm nozzle. The operating pressure was 95 lb/sq inch (655 kPa). The abrasive used was a commercial product consisting of fine glass particles.
(§3) Within an hour after bruising or blasting, plots received an application of glyphosate as its isopropylamine salt in the form of the aqueous concentrate formulation sold in Australia as Roundup® herbicide, diluted appropriately in water. Application was made using a hand-held boom sprayer fitted with 11001 nozzles, operating at 250 kPa pressure and delivering 90 liters/ha spray volume.
(§4) After an interval of 14 days, a visual evaluation was performed to estimate herbicidal efficacy as percent control of plants in treated plots compared to untreated check plots.

[4] = tested on: silvergrass (Vulpia sp., VLPSS); assay: as above; conditions: 14 days after glyphosate application
Description: as §1, §2, §3, §4

[5] = glyphosate rate 0.18 kg a.e./ha, injury treatment blasting
[6] = glyphosate rate 0.18 kg a.e./ha, injury treatment bruising
[7] = glyphosate rate 0.18 kg a.e./ha, injury treatment none
[8] = glyphosate rate 0.25 kg a.e./ha, injury treatment blasting
[9] = glyphosate rate 0.25 kg a.e./ha, injury treatment bruising
[10] = glyphosate rate 0.25 kg a.e./ha, injury treatment none
[11] = glyphosate rate 0.36 kg a.e./ha, injury treatment blasting
[12] = glyphosate rate 0.36 kg a.e./ha, injury treatment bruising
[13] = glyphosate rate 0.36 kg a.e./ha, injury treatment none

For O=C(O)CNCP(=O)(O)O [glyphosate, N-phosphonomethylglycine], the “percent control of CHEAL 12 days after glyphosate application” value (“percent control of CHEAL 12 days” below) ([1]; aluminum oxide, abrasive rate* (kg/ha) 143, calculated based on garnet) was 46%, the “percent control of CHEAL 12 days” value ([1]; aluminum oxide, abrasive rate* (kg/ha) 256, calculated based on garnet) was 50% and the “percent control of CHEAL 12 days” value ([1]; fertilizer, abrasive rate* (kg/ha) 143, calculated based on garnet) was 25%. For the same molecule, the “percent control of CHEAL 12 days” value ([1]; fertilizer, abrasive rate* (kg/ha) 256, calculated based on garnet) was 34%, the “percent control of CHEAL 12 days” value ([1]; garnet, abrasive rate* (kg/ha) 143) was 52% and the “percent control of CHEAL 12 days” value ([1]; garnet, abrasive rate* (kg/ha) 256) was 37%. The “percent control of CHEAL 12 days” value ([1]; glass beads, abrasive rate* (kg/ha) 143, calculated based on garnet) was 62%, the “percent control of CHEAL 12 days” value ([1]; glass beads, abrasive rate* (kg/ha) 256, calculated based on garnet) was 43% and the “percent control of CHEAL 12 days” value ([1]; glass cullet, 1035, abrasive rate* (kg/ha) 143, calculated based on garnet) was 28%. The “percent control of CHEAL 12 days” value ([1]; glass cullet, 1035, abrasive rate* (kg/ha) 256, calculated based on garnet) was 48%, the “percent control of CHEAL 12 days” value ([1]; glass cullet, 1040, abrasive rate* (kg/ha) 143, calculated based on garnet) was 38% and the “percent control of CHEAL 12 days” value ([1]; glass cullet, 1040, abrasive rate* (kg/ha) 256, calculated based on garnet) was 20%. For the same molecule, the “percent control of CHEAL 12 days” value ([1]; white silica sand, abrasive rate* (kg/ha) 143, calculated based on garnet) was 38%, the “percent control of CHEAL 12 days” value ([1]; white silica sand, abrasive rate* (kg/ha) 256, calculated based on garnet) was 50% and the “percent control of ABUTH 14 days after glyphosate application” value (“percent control of ABUTH 14 days” below) ([2]; abraded before 0 h, glyphosate 0.056 kg a.e./ha) was 70%. The “percent control of ABUTH 14 days” value ([2]; abraded before 0 h, glyphosate 0.11 kg a.e./ha) was 78%, the “percent control of ABUTH 14 days” value ([2]; abraded before 2 h, glyphosate 0.056 kg a.e./ha) was 73% and the “percent control of ABUTH 14 days” value ([2]; abraded before 2 h, glyphosate 0.11 kg a.e./ha) was 85%. For the same molecule, the “percent control of ABUTH 14 days” value ([2]; abraded before 4 h, glyphosate 0.056 kg a.e./ha) was 79%, the “percent control of ABUTH 14 days” value ([2]; abraded before 4 h, glyphosate 0.11 kg a.e./ha) was 94% and the “percent control of ABUTH 14 days” value ([2]; abraded before 24 h, glyphosate 0.056 kg a.e./ha) was 45%. For the same molecule, the “percent control of ABUTH 14 days” value ([2]; abraded before 24 h, glyphosate 0.11 kg a.e./ha) was 76%, the “percent control HRYMI” value [3, 5] was 77% and the “percent control HRYMI” value [3, 6] was 77%. The “percent control HRYMI” value [3, 7] was 62%, the “percent control HRYMI” value [3, 8] was 100% and the “percent control HRYMI” value [3, 9] was 80%. The “percent control HRYMI” value [3, 10] was 78%, the “percent control HRYMI” value [3, 11] was 100% and the “percent control HRYMI” value [3, 12] was 93%. For the same molecule, the “percent control HRYMI” value [3, 13] was 92%, the “percent control VLPSS” value [4, 5] was 77% and the “percent control VLPSS” value [4, 6] was 78%. For the same molecule, the “percent control VLPSS” value [4, 7] was 65%, the “percent control VLPSS” value [4, 8] was 82% and the “percent control VLPSS” value [4, 9] was 83%. For the same molecule, the “percent control VLPSS” value [4, 10] was 85%, the “percent control VLPSS” value [4, 11] was 98% and the “percent control VLPSS” value [4, 12] was 83%. For the same molecule, the “percent control VLPSS” value [4, 13] was 95%.
